Test results: patent US20260364184A1, “COMPOUND BASED ON OXOISOINDOLINYL-SUBSTITUTED TETRAHYDROPYRIMIDINE-DIONE AND USE THEREOF” (GLUETACS THERAPEUTICS (SHANGHAI) CO., LTD., priority 2023, published 2026)

Experiments:
[1] = tested on: Human non-small cell lung cancer cell line NCI-H1975; assay: Inhibition of H1975 cell proliferation (CellTiter luminescent viability); assay type: cell-based; conditions: Table ID1, EGFR inhibitor-based; H1975, 96 hours; read-out: Inhibitory activity (IC50, nM) on tumor cell proliferation, H1975
Procedure: The tumor cells used herein were cultured in a cell culture medium listed in table 3 at 37 °C in an incubator with 5% CO2. Prior to experimentation, all cell lines used were correctly identified by STR profiling, and tested negative for mycoplasma contamination using a mycoplasma detection kit through routine screenings.
The IC50 values of the compounds of the present disclosure (including the compounds in Table 1, Table 2, and Examples 1-468) were determined using the CellTiter-Meiluncell Luminescent Cell Viability Assay Kit from Dalian Meilun Biotech Co., Ltd. The detailed procedure is as follows: Tumor cells were seeded in 96-well cell culture plates at the densities specified in Table 4. On the following day, the test compounds of the present disclosure were subjected to serial dilution. The dilution can be performed according to one of the following two methods: • (1) The first dilution method: The test compounds of the present disclosure (including the compounds in Table 1, Table 2, and Examples 1-468) were subjected to 5-fold serial dilutions starting from a highest concentration of 2000 μM, resulting in a total of 9 concentrations from high to low (2000, 400, 80, 16, 3.2, 0.64, 0.128, 0.0256, 0.00512 μM). Subsequently, 0.5 μL of the test compound dilution was transferred into the 96-well plate containing the cells, with each well containing 100 μL of cell culture medium. […] Into the 96-well plate, the diluted test compounds and corresponding detection reagents were added, resulting in final test compound concentrations of 500 nM and 10 nM, respectively. The experimental procedure is described below using the diluted 2 μM test compound as an example.
0.5 μL of the aforementioned diluted compound of the present disclosure (including the compounds in Table 1, Table 2, and Examples 1-468) was added to the seeded cells in 100 μL of medium, yielding a final test compound concentration of 10 nM. After the cells were treated with the compounds of the present disclosure for a specified period, the cell viability assay reagent was added to the culture medium according to the kit's instructions to determine cell viability. […] All controls were treated using the same procedure as the compounds of the present disclosure. The growth inhibition curves for the compounds of the present disclosure were plotted using Prism GraphPad software, and the IC50 values were calculated therefrom.

EGFR = molecular target: T1, EGFR (Homo sapiens, UniProt P00533); assay: Western blot degradation of EGFR; assay type: cell-based; conditions: H1975 Cell; 24 hours
T1 construct: L858R/T790M in cis, heterozygous with wild type), Western blot
Procedure: Conventional Western blot assay was performed to evaluate the effects of the compounds of the present disclosure on the expression of target proteins in cells.
(1) Cell Seeding and Protein Harvesting: The selected cells were processed according to the cell seeding procedure and protein harvesting procedure in Table II-2.
(2) To the collected supernatant, 5×SDS sample loading buffer was added, followed by denaturation at 95 °C for 5 minutes. The denatured samples were then separated by SDS-PAGE electrophoresis on a polyacrylamide gel. Proteins were transferred to a nitrocellulose membrane (0.45 μm NC membrane), blocked with blocking buffer at room temperature for 1 hour, and subjected to antibody incubation and development procedures according to the antibody manufacturer's instructions (Cell Signaling Technology).
Half-Maximal Degradation Concentration value (the drug concentration required for degrading proteins by 50%, abbreviated as DC50) reads method: comparing the grayscale values of Western blot bands from drug-treated samples with those from blank DMSO-treated controls, and identifying the drug concentration range at which the grayscale value is half that of the DMSO-treated control bands.
DC50 values can be calculated using ImageJ software to measure grayscale values of Western blot bands from drug-treated samples. The concentration-response curve is fitted to estimate the drug concentration corresponding to half the grayscale value.
Target protein remaining (%) refers to the percentage of target protein remaining in cells after treatment with protein degrader compounds.
Calculation method for target protein remaining (%): Use ImageJ software to measure grayscale values of Western blot bands from drug (protein degrader)-treated samples. The grayscale value of drug-treated bands is divided by that of internal control protein bands, and the resulting quotient is normalized to obtain the relative percentage of remaining target protein after protein degrader treatment.
Target protein degradation rate (%)=1−target protein remaining (%).

[2] = molecular target: T2, human Cereblon WT GST-tagged protein (CRBN) (Homo sapiens, UniProt Q96SW2); assay: CRBN binding by HTRF (Cereblon binding kit); conditions: for inhibition at 0.5 µM: read-out: Inhibition Rate at 0.5 μM (%); for inhibition at 2 µM: read-out: Inhibition Rate at 2 μM (%)
T2 construct: purchased CISBIO 64BDCRBNPEH
Outline: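 GST-tagged human Cereblon WT was incubated 3 h at room temperature with compound, thalidomide-Re tracer and Eu anti-GST antibody. Final compound concentrations were 10 to 0.00064 µM (7 points) or 2 and 0.5 µM. Inhibition rate was calculated from HTRF 665/620 nm ratios versus solvent and blank controls.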

T2 sequence (Q96SW2 whole entry): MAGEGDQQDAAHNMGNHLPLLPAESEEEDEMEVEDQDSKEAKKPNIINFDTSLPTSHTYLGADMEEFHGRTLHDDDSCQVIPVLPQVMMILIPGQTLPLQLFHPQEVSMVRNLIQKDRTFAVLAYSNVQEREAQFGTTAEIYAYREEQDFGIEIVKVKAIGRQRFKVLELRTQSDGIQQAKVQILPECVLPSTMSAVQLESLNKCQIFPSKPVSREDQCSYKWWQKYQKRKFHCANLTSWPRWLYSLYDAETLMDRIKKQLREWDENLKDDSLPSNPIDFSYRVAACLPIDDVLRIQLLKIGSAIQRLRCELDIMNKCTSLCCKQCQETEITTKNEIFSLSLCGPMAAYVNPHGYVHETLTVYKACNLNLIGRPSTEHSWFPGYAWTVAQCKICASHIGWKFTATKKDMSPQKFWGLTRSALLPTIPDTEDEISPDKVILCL
T1 sequence (P00533 25-1210): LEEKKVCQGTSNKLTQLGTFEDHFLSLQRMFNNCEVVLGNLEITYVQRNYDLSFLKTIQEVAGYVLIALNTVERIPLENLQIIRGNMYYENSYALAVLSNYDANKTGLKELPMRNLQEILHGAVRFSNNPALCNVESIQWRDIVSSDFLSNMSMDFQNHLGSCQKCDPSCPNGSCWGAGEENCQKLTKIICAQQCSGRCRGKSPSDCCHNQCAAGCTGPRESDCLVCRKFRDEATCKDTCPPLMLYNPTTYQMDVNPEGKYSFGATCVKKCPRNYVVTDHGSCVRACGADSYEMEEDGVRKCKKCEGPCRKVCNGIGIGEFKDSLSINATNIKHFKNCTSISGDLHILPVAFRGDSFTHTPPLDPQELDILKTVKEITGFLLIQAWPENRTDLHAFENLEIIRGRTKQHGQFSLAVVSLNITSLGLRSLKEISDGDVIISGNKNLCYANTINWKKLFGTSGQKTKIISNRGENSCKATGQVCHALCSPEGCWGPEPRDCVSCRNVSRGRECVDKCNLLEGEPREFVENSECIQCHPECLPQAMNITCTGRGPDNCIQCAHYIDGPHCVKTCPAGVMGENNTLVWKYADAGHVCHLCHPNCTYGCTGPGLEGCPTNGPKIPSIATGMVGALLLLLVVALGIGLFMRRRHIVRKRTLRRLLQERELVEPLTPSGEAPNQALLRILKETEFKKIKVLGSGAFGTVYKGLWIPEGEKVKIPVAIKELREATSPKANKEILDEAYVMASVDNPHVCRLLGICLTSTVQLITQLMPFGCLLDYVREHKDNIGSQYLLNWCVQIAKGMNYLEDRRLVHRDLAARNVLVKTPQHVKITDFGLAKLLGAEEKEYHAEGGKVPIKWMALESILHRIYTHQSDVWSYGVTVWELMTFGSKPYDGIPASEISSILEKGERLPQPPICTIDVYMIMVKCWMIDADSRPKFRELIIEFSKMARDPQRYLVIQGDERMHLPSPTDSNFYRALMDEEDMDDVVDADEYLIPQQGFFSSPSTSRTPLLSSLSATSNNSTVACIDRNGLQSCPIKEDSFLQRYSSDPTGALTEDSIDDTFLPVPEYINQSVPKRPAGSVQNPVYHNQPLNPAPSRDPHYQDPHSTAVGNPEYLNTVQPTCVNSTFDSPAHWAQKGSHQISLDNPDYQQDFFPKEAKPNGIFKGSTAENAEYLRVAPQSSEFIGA
T1 sequence (Q96SW2 whole entry partner): as the sequence (Q96SW2 whole entry) above

| Degradation of substrate protein EGFR (substrate protein remaining %) (EGFR) | SMILES | other results |
| --- | --- | --- |
| – | O=C1CCN(N2C(=O)c3ccc(CN4C[C@H]5C[C@@H]4CN5c4ccc(-c5cc(F)c6c(c5)C(=O)N(C(C(=O)Nc5nccs5)c5ncn7c5CCC7)C6)cc4)cc3C2=O)C(=O)N1 (stereo partly drawn) [GT-06173, 2-(6,7-dihydro-5H-pyrrolo[1,2-c]imidazol-1-yl)-2-(6-(4-((1R,4R)-5-((2-(2,4-dioxotetrahydropyrimidin-1(2H)-yl)-1,3-dioxoisoindolin-5-yl)methyl)-2,5-diazabicyclo[2.2.1]heptan-2-yl)phenyl)-4-fluoro-1-oxoisoindolin-2-yl)-N-(thiazol-2-yl)acetamide] | IC50 [1]: 50 to 100 nM |
| A (0%≤substrate protein remaining %≤80%) | COC1CCN(c2nccc(Nc3cc4c(cn3)c(N3CCC(N(C)CC5CCN(c6cccc7c6C(=O)N(N6CCC(=O)NC6=O)C7=O)CC5)CC3)nn4C(C)C)n2)CC1 [GT-06119, 2-(2,4-dioxotetrahydropyrimidin-1(2H)-yl)-4-(4-(((1-(1-isopropyl-6-((2-(4-methoxypiperidin-1-yl)pyrimidin-4-yl)amino)-1H-pyrazolo[4,3-c]pyridin-3-yl)piperidin-4-yl)(methyl)amino)methyl)piperidin-1-yl)isoindoline-1,3-dione] | inhibition at 0.5 µM [2]: 10 to 20%; inhibition at 2 µM [2]: 53 to 60% |
| A (0%≤substrate protein remaining %≤80%) | O=C1CCN(N2Cc3cc(CN4CCN(c5ccc(Nc6ncc7nc(Nc8ccccc8)n(C8CCCC8)c7n6)cc5)CC4)ccc3C2=O)C(=O)N1 [GT-05836, 1-(5-((4-(4-((9-cyclopentyl-8-(phenylamino)-9H-purin-2-yl)amino)phenyl)piperazin-1-yl)methyl)-1-oxoisoindolin-2-yl)dihydropyrimidine-2,4 (1H,3H)-dione] | – |
| A (0%≤substrate protein remaining %≤80%) | CN(CC1CCN(c2ccc3c(c2)C(=O)N(N2CCC(=O)NC2=O)C3=O)CC1)C1CCN(c2ccc(Nc3ncc4nc(Nc5ccccc5)n(C5CCCC5)c4n3)cc2)CC1 [GT-05843, 5-(4-(((1-(4-((9-cyclopentyl-8-(phenylamino)-9H-purin-2-yl)amino)phenyl)piperidin-4-yl)(methyl)amino)methyl)piperidin-1-yl)-2-(2,4-dioxotetrahydropyrimidin-1(2H)-yl)isoindoline-1,3-dione] | – |
| A (0%≤substrate protein remaining %≤80%) | CN(Cc1ccc2c(c1)C(=O)N(N1CCC(=O)NC1=O)C2=O)C1CCN(c2ccc(Nc3ncc4nc(Nc5ccccc5)n(C5CCCC5)c4n3)cc2)CC1 [GT-07113, 5-(((1-(4-((9-cyclopentyl-8-(phenylamino)-9H-purin-2-yl)amino)phenyl)piperidin-4-yl)(methyl)amino)methyl)-2-(2,4-dioxotetrahydropyrimidin-1(2H)-yl)isoindoline-1,3-dione] | – |
| A (0%≤substrate protein remaining %≤80%) | CN(Cc1ccc2c(c1)CN(N1CCC(=O)NC1=O)C2=O)C1CCN(c2ccc(Nc3ncc4nc(Nc5ccccc5)n(C5CCCC5)c4n3)cc2)CC1 [GT-05842, 1-(5-(((1-(4-((9-cyclopentyl-8-(phenylamino)-9H-purin-2-yl)amino)phenyl)piperidin-4-yl)(methyl)amino)methyl)-1-oxoisoindolin-2-yl)dihydropyrimidine-2,4 (1H,3H)-dione] | inhibition at 0.5 µM [2]: 10 to 20%; inhibition at 2 µM [2]: 53 to 60% |
| A (0%≤substrate protein remaining %≤80%) | COc1cc(N2CCN(Cc3ccc4c(c3)CN(N3CCC(=O)NC3=O)C4=O)CC2)c(C)cc1Nc1ncc(Br)c(Nc2ccc3nccnc3c2P(C)(C)=O)n1 [GT-05946, 1-(5-((4-(4-((5-bromo-4-((5-(dimethylphosphoryl)quinoxalin-6-yl)amino)pyrimidin-2-yl)amino)-5-methoxy-2-methylphenyl)piperazin-1-yl)methyl)-1-oxoisoindolin-2-yl)dihydropyrimidine-2,4 (1H,3H)-dione] | – |
| A (0%≤substrate protein remaining %≤80%) | COc1cc(N2CCC(N3CCN(Cc4ccc5c(c4)C(=O)N(N4CCC(=O)NC4=O)C5=O)CC3)CC2)c(C)cc1Nc1ncc(Br)c(Nc2ccc3nccnc3c2P(C)(C)=O)n1 [GT-06154, 5-((4-(1-(4-((5-bromo-4-((5-(dimethylphosphoryl)quinoxalin-6-yl)amino)pyrimidin-2-yl)amino)-5-methoxy-2-methylphenyl)piperidin-4-yl)piperazin-1-yl)methyl)-2-(2,4-dioxotetrahydropyrimidin-1(2H)-yl)isoindoline-1,3-dione] | – |
| A (0%≤substrate protein remaining %≤80%) | COC1CCN(c2nccc(Nc3cc4c(cn3)c(N3CCN(CC5CCN(c6cccc7c6C(=O)N(N6CCC(=O)NC6=O)C7=O)CC5)CC3)nn4C(C)C)n2)CC1 [GT-06035, 2-(2,4-dioxotetrahydropyrimidin-1(2H)-yl)-4-(4-((4-(1-isopropyl-6-((2-(4-methoxypiperidin-1-yl)pyrimidin-4-yl)amino)-1H-pyrazolo[4,3-c]pyridin-3-yl)piperazin-1-yl)methyl)piperidin-1-yl)isoindoline-1,3-dione] | – |
| A (0%≤substrate protein remaining %≤80%) | CC(C)n1nc(N2CCN(CC3CCN(c4ccc5c(c4)C(=O)N(N4CCC(=O)NC4=O)C5=O)CC3)CC2)c2cnc(Nc3ccnc(-c4cnn(S(=O)(=O)C5CC5)c4)n3)cc21 [GT-06073, 5-(4-((4-(6-((2-(1-(cyclopropylsulfonyl)-1H-pyrazol-4-yl)pyrimidin-4-yl)amino)-1-isopropyl-1H-pyrazolo[4,3-c]pyridin-3-yl)piperazin-1-yl)methyl)piperidin-1-yl)-2-(2,4-dioxotetrahydropyrimidin-1(2H)-yl)isoindoline-1,3-dione] | – |
| A (0%≤substrate protein remaining %≤80%) | O=C1CCN(N2Cc3cc(CN4CCN(C5CCN(c6ccc(Nc7ncc8nc(Nc9ccccc9)n(C9CCCC9)c8n7)cc6)CC5)CC4)ccc3C2=O)C(=O)N1 [GT-05914, 1-(5-((4-(1-(4-((9-cyclopentyl-8-(phenylamino)-9H-purin-2-yl)amino)phenyl)piperidin-4-yl)piperazin-1-yl)methyl)-1-oxoisoindolin-2-yl)dihydropyrimidine-2,4 (1H,3H)-dione] | – |
| A (0%≤substrate protein remaining %≤80%) | COc1cc(N2CCC(N3CCN(CC4CCN(c5ccc6c(c5)C(=O)N(N5CCC(=O)NC5=O)C6=O)CC4)CC3)CC2)c(C)cc1Nc1ncc(Br)c(Nc2ccc3nccnc3c2P(C)(C)=O)n1 [GT-05997, 5-(4-((4-(1-(4-((5-bromo-4-((5-(dimethylphosphoryl)quinoxalin-6-yl)amino)pyrimidin-2-yl)amino)-5-methoxy-2-methylphenyl)piperidin-4-yl)piperazin-1-yl)methyl)piperidin-1-yl)-2-(2,4-dioxotetrahydropyrimidin-1(2H)-yl)isoindoline-1,3-dione] | – |
